Assay results taken from PubChem BioAssay (NCI).
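Interpolation was linear, between the two tested concentrations surrounding the appropriate level; five concentrations were tested over 48 hours in 96-well plates. TGI: concentration producing complete growth inhibition.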

Key:
Assay in all cases: NCI anticancer screen, dose series, 48 h
KM12 colon = test system: KM12 colon
T-47D breast = test system: T-47D breast
OVCAR-5 ovarian = test system: OVCAR-5 ovarian
IGROV1 ovarian = test system: IGROV1 ovarian
HCT-15 colon = test system: HCT-15 colon
SN12C renal = test system: SN12C renal
SNB-75 CNS = test system: SNB-75 CNS
NCI-H460 lung = test system: NCI-H460 lung
SK-MEL-5 melanoma = test system: SK-MEL-5 melanoma
A549 NSCLC = test system: A549 NSCLC
RPMI-8226 leukemia = test system: RPMI-8226 leukemia
SF-268 CNS = test system: SF-268 CNS
COLO 205 colon = test system: COLO 205 colon
HOP-62 NSCLC = test system: HOP-62 NSCLC
RXF 393 renal = test system: RXF 393 renal
OVCAR-8 ovarian = test system: OVCAR-8 ovarian
NCI-H23 lung = test system: NCI-H23 lung
OVCAR-3 ovarian = test system: OVCAR-3 ovarian
HCT-116 colon = test system: HCT-116 colon
MDA-MB-231 breast = test system: MDA-MB-231 breast
UO-31 renal = test system: UO-31 renal
NCI-H226 lung = test system: NCI-H226 lung
BT-549 breast = test system: BT-549 breast
HCC-2998 colon = test system: HCC-2998 colon
UACC-257 melanoma = test system: UACC-257 melanoma
MDA-N = test system: MDA-N
MALME-3M melanoma = test system: MALME-3M melanoma
PC-3 prostate = test system: PC-3 prostate
HL-60(TB) leukemia = test system: HL-60(TB) leukemia
NCI-H522 lung = test system: NCI-H522 lung
786-0 renal = test system: 786-0 renal
EKVX NSCLC = test system: EKVX NSCLC
MCF7 breast = test system: MCF7 breast
HT29 colon = test system: HT29 colon
SK-OV-3 ovarian = test system: SK-OV-3 ovarian
TK-10 renal = test system: TK-10 renal
NCI/ADR-RES ovarian = test system: NCI/ADR-RES ovarian
ACHN renal = test system: ACHN renal
SF-295 CNS = test system: SF-295 CNS
UACC-62 melanoma = test system: UACC-62 melanoma
DU-145 prostate = test system: DU-145 prostate
SF-539 CNS = test system: SF-539 CNS
HS 578T breast = test system: HS 578T breast
SK-MEL-2 melanoma = test system: SK-MEL-2 melanoma
M14 melanoma = test system: M14 melanoma
OVCAR-4 ovarian = test system: OVCAR-4 ovarian
MDA-MB-435 = test system: MDA-MB-435
U251 CNS = test system: U251 CNS
CCRF-CEM leukemia = test system: CCRF-CEM leukemia
LOX IMVI melanoma = test system: LOX IMVI melanoma
K-562 leukemia = test system: K-562 leukemia
SNB-19 CNS = test system: SNB-19 CNS
SW-620 colon = test system: SW-620 colon
SK-MEL-28 melanoma = test system: SK-MEL-28 melanoma
A498 renal = test system: A498 renal
CAKI-1 renal = test system: CAKI-1 renal

O=C1c2c(O)ccc(O)c2C(=O)c2c(NCCNC(=O)C(O)C(O)C(O)C(O)CO)ccc(NCCNC(=O)C(O)C(O)C(O)C(O)CO)c21 (centres undefined)
TGI (KM12 colon): 534 nM | TGI (T-47D breast): 2350 nM | TGI (OVCAR-5 ovarian): 1880 nM | TGI (IGROV1 ovarian): 1450 nM | TGI (HCT-15 colon): 1040 nM | TGI (SN12C renal): 11.8 nM | TGI (SNB-75 CNS): 1230 nM | TGI (NCI-H460 lung): 15.9 nM | TGI (SK-MEL-5 melanoma): 522 nM | TGI (A549 NSCLC): 1530 nM | TGI (RPMI-8226 leukemia): 202 nM | TGI (SF-268 CNS): 1980 nM | TGI (COLO 205 colon): 578 nM | TGI (HOP-62 NSCLC): 1130 nM | TGI (RXF 393 renal): 812 nM | TGI (OVCAR-8 ovarian): 528 nM | TGI (NCI-H23 lung): 417 nM | TGI (OVCAR-3 ovarian): 2290 nM | TGI (HCT-116 colon): 197 nM | TGI (MDA-MB-231 breast): 633 nM | TGI (UO-31 renal): 352 nM | TGI (NCI-H226 lung): 524 nM | TGI (BT-549 breast): 2360 nM | TGI (HCC-2998 colon): 483 nM | TGI (UACC-257 melanoma): 7240 nM | TGI (MDA-N): 601 nM | TGI (MALME-3M melanoma): 2650 nM | TGI (PC-3 prostate): 1510 nM | TGI (HL-60(TB) leukemia): 14.9 nM | TGI (NCI-H522 lung): 218 nM | TGI (786-0 renal): 53.1 nM | TGI (EKVX NSCLC): 1420 nM | TGI (MCF7 breast): 243 nM | TGI (HT29 colon): 399 nM | TGI (SK-OV-3 ovarian): 1410 nM | TGI (TK-10 renal): 1370 nM | TGI (NCI/ADR-RES ovarian): 2240 nM | TGI (ACHN renal): 101 nM | TGI (SF-295 CNS): 29.1 nM | TGI (UACC-62 melanoma): 1040 nM | TGI (DU-145 prostate): 254 nM | TGI (SF-539 CNS): 440 nM | TGI (HS 578T breast): 2700 nM | TGI (SK-MEL-2 melanoma): 2880 nM | TGI (M14 melanoma): 1390 nM | TGI (OVCAR-4 ovarian): 771 nM

Nc1cnc(Nc2cccc3ccccc23)o1
TGI (KM12 colon): > 10000 nM | TGI (T-47D breast): > 10000 nM | TGI (IGROV1 ovarian): > 10000 nM | TGI (HCT-15 colon): > 10000 nM | TGI (SN12C renal): > 10000 nM | TGI (SNB-75 CNS): > 10000 nM | TGI (MDA-MB-435): > 10000 nM | TGI (U251 CNS): > 10000 nM | TGI (NCI-H460 lung): > 10000 nM | TGI (CCRF-CEM leukemia): > 10000 nM | TGI (SK-MEL-5 melanoma): > 10000 nM | TGI (A549 NSCLC): > 10000 nM | TGI (LOX IMVI melanoma): > 10000 nM | TGI (K-562 leukemia): > 10000 nM | TGI (SF-268 CNS): > 10000 nM | TGI (COLO 205 colon): > 10000 nM | TGI (HOP-62 NSCLC): > 10000 nM | TGI (SNB-19 CNS): > 10000 nM | TGI (RXF 393 renal): > 10000 nM | TGI (OVCAR-8 ovarian): > 10000 nM | TGI (NCI-H23 lung): > 10000 nM | TGI (OVCAR-3 ovarian): > 10000 nM | TGI (HCT-116 colon): > 10000 nM | TGI (MDA-MB-231 breast): > 10000 nM | TGI (UO-31 renal): > 10000 nM | TGI (NCI-H226 lung): > 10000 nM | TGI (SW-620 colon): > 10000 nM | TGI (HCC-2998 colon): > 10000 nM | TGI (UACC-257 melanoma): > 10000 nM | TGI (MDA-N): > 10000 nM | TGI (MALME-3M melanoma): > 10000 nM | TGI (PC-3 prostate): > 10000 nM | TGI (SK-MEL-28 melanoma): > 10000 nM | TGI (HL-60(TB) leukemia): > 10000 nM | TGI (NCI-H522 lung): > 10000 nM | TGI (A498 renal): > 10000 nM | TGI (786-0 renal): > 10000 nM | TGI (EKVX NSCLC): > 10000 nM | TGI (MCF7 breast): > 10000 nM | TGI (HT29 colon): > 10000 nM | TGI (SK-OV-3 ovarian): > 10000 nM | TGI (TK-10 renal): > 10000 nM | TGI (NCI/ADR-RES ovarian): > 10000 nM | TGI (ACHN renal): > 10000 nM | TGI (SF-295 CNS): > 10000 nM | TGI (UACC-62 melanoma): > 10000 nM | TGI (DU-145 prostate): > 10000 nM | TGI (SF-539 CNS): > 10000 nM | TGI (HS 578T breast): > 10000 nM | TGI (SK-MEL-2 melanoma): > 10000 nM | TGI (CAKI-1 renal): > 10000 nM | TGI (M14 melanoma): > 10000 nM | TGI (OVCAR-4 ovarian): > 10000 nM
